The target of series [1] is T1, Pak1 (Homo sapiens, UniProt Q13153). The series is described as follows: Pak1 inhibition in vitro. The format is biochemical. The following applies: read-out: IC50 values towards Pak1.
Series [2] concerns Arachnoid cell AC07. The series is described as follows: Cell viability, MTT assay. The following applies: NF2+/+, 72 hrs. It counts as cell-based. The procedure:
(§1) Cells were plated at 3 × 10^3 cells per well in 96-well plates overnight and treated with various concentrations of Pak inhibitors for 72 hours. Cell viability was measured by MTT assay and the half maximal inhibitory concentration (IC50) was calculated.

In series [3] the test system is Benign Ben-Men-1. The series is described as follows: Cell viability, MTT assay. It counts as cell-based. The following applies: NF2−/−; 72 hrs; MTT. The method, then:
as §1

In series [4] the test system is Benign MN328. Put plainly: Cell viability, MTT assay. It counts as cell-based. The following applies: NF2+/+. The procedure: as §1
Series [5] deals with Malignant KT21-MG1. Put plainly: Cell viability, MTT assay. The following applies: NF2−/−; 72 hrs; MTT. The format is cell-based. The method, then:
as §1

Series [6] deals with Malignant MN525. Put plainly: Cell viability, MTT assay. It counts as cell-based. The following applies: NF2+/+. The method, then: as §1
Series [7] has as its system Ben-Men cells. The series is described as follows: Immunoblot of signaling pathways. The format is cell-based. The procedure:
(§2) Protein concentration was determined, and equal amount of total proteins were separated by SDS-PAGE. […] GAPDH and β-actin were used as loading control.

The test system of series [8] is KT21 or Ben-Men cells. Put plainly: Immunoblot of signaling pathways. The format is cell-based. The method, then:
as §2

For series [9], the target named is T2, ABL2 (Arg) (Homo sapiens, UniProt P42684).
T2 construct: purchased Invitrogen (Life Technologies) SelectScreen Z'-LYTE
T2 sequence (P42684 whole entry): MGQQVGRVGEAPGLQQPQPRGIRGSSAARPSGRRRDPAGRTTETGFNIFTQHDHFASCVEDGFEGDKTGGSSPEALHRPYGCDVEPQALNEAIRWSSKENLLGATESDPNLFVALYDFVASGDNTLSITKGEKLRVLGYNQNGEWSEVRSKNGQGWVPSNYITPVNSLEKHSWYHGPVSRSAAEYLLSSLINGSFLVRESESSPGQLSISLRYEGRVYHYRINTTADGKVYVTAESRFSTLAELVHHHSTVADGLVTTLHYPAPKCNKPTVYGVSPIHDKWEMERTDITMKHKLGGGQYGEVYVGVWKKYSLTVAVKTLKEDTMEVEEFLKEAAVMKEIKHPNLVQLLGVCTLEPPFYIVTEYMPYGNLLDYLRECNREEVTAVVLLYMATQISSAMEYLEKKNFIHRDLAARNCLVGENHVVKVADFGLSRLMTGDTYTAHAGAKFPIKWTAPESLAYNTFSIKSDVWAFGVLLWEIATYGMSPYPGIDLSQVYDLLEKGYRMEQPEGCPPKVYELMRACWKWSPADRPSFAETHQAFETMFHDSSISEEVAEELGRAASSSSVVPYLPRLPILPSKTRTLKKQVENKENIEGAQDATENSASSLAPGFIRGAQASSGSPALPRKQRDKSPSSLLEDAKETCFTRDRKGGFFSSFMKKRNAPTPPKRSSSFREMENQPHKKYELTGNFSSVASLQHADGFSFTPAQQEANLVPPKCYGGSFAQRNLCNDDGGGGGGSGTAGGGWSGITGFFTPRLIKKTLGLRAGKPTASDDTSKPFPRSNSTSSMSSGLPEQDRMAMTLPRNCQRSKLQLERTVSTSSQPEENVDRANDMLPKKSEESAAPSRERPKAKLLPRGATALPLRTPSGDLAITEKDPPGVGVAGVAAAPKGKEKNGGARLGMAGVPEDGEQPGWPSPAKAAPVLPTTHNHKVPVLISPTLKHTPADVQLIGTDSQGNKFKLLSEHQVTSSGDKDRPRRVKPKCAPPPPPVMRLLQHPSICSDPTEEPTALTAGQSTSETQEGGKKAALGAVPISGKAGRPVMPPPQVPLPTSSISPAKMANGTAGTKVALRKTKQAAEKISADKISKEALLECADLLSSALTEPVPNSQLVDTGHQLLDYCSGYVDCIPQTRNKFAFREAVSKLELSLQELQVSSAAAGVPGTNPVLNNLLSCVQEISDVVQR
Put plainly: Kinase selectivity, Z'-LYTE. It counts as biochemical. In short, it runs like this: (§3)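 Each recombinant kinase phosphorylates a peptide substrate under conditions optimized for that enzyme. A protease then cleaves only non-phosphorylated peptide, and the fluorescence change reports kinase activity.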

Series [10] deals with T3, AKT2 (PKB beta) (Homo sapiens, UniProt P31751).
T3 construct: purchased Invitrogen (Life Technologies) SelectScreen Z'-LYTE
T3 sequence (P31751 whole entry): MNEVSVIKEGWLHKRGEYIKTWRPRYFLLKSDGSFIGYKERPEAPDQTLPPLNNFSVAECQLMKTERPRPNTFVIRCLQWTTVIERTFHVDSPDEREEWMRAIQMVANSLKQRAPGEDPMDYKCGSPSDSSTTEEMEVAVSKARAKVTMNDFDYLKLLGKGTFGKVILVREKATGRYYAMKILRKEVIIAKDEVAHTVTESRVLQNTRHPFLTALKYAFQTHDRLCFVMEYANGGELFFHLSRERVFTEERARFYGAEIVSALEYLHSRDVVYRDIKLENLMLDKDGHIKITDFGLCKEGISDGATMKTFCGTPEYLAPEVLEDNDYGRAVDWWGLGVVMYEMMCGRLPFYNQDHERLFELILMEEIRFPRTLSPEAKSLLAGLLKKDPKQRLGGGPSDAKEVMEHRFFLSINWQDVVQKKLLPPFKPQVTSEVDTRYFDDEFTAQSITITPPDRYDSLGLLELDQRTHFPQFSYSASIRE
The series is described as follows: Kinase selectivity, Z'-LYTE. The format is biochemical. The essentials:
as §3

Series [11] deals with T4, AMPKA1/B1/G1 (Homo sapiens, UniProt Q13131).
T4 construct: purchased Invitrogen (Life Technologies) SelectScreen Z'-LYTE
Put plainly: Kinase selectivity, Z'-LYTE. It counts as biochemical. In short, it runs like this:
as §3

For series [12], the target named is T5, AMPKA2/B1/G1 (Homo sapiens, UniProt P54646).
T5 construct: purchased Invitrogen (Life Technologies) SelectScreen Z'-LYTE
Put plainly: Kinase selectivity, Z'-LYTE. It counts as biochemical. The essentials:
as §3

Series [13] addresses T6, CDK2/cyclin A (Homo sapiens, UniProt P24941).
T6 construct: purchased Invitrogen (Life Technologies) SelectScreen Z'-LYTE
Put plainly: Kinase selectivity, Z'-LYTE. The format is biochemical. The essentials: as §3

For series [14], the target named is T7, CDK6/p25 (Homo sapiens, UniProt Q00535).
T7 construct: purchased Invitrogen (Life Technologies) SelectScreen Z'-LYTE
T7 sequence (Q00535 whole entry): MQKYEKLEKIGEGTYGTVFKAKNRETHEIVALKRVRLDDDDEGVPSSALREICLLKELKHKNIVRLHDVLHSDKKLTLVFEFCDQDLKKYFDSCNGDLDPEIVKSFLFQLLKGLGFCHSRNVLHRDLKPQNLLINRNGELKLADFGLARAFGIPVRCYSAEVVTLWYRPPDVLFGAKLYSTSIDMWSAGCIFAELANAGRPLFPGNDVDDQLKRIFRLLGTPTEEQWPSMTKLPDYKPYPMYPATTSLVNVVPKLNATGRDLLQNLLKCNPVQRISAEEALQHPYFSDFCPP
T7 sequence (Q15078 99-307 partner limits assumed): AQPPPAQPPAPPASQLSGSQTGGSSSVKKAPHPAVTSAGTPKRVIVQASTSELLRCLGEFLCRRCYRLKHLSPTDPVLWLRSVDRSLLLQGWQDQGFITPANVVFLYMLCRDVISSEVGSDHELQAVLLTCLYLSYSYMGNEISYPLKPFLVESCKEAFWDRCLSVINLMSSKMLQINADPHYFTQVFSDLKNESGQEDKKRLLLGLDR
Put plainly: Kinase selectivity, Z'-LYTE. It counts as biochemical. In short, it runs like this: as §3

Series [15] addresses T8, DYRK1B (Homo sapiens, UniProt Q9Y463).
T8 construct: purchased Invitrogen (Life Technologies) SelectScreen Z'-LYTE
Put plainly: Kinase selectivity, Z'-LYTE. The format is biochemical. The essentials: as §3

The target in series [16] is T9, JAK1 (Homo sapiens, UniProt P23458).
T9 construct: purchased Invitrogen (Life Technologies) SelectScreen Z'-LYTE
T9 sequence (P23458 whole entry): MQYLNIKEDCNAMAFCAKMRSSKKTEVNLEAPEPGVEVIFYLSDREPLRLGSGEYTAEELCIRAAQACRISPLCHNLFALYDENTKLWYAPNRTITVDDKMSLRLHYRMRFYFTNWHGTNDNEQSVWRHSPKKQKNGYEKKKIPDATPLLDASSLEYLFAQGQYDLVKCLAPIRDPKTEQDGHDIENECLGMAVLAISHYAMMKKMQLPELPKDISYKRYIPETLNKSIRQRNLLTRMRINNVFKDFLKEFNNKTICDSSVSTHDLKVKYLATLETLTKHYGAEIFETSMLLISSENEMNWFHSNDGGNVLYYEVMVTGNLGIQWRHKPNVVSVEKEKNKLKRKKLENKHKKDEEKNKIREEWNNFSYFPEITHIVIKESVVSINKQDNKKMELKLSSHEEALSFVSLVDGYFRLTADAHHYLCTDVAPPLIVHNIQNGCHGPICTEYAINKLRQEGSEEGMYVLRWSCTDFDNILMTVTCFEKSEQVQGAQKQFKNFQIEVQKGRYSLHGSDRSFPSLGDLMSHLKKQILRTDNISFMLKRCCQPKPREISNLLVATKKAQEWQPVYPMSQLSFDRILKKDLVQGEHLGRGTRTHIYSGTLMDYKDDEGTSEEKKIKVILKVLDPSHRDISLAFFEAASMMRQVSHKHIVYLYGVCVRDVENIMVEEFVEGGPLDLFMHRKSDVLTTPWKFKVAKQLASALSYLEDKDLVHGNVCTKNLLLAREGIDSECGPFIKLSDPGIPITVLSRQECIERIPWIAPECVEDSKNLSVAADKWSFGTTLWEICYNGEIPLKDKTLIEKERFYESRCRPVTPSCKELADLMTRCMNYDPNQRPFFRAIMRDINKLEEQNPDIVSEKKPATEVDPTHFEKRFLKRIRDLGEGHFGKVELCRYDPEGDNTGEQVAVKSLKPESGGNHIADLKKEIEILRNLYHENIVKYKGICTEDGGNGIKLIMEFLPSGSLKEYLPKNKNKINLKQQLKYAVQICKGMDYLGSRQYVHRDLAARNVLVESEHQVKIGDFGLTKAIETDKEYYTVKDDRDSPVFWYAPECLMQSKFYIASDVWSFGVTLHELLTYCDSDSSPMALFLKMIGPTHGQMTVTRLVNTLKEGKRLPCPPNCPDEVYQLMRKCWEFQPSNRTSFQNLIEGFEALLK
The series is described as follows: Kinase selectivity, Z'-LYTE. It counts as biochemical. The essentials:
as §3

Series [17] has as its target T10, NTRK1 (TRKA) (Homo sapiens, UniProt P04629).
T10 construct: purchased Invitrogen (Life Technologies) SelectScreen Z'-LYTE
The series is described as follows: Kinase selectivity, Z'-LYTE. The format is biochemical. In short, it runs like this:
as §3

In series [18] the target is T11, PIM1 (Homo sapiens, UniProt P11309).
T11 construct: purchased Invitrogen (Life Technologies) SelectScreen Z'-LYTE
T11 sequence (P11309 whole entry): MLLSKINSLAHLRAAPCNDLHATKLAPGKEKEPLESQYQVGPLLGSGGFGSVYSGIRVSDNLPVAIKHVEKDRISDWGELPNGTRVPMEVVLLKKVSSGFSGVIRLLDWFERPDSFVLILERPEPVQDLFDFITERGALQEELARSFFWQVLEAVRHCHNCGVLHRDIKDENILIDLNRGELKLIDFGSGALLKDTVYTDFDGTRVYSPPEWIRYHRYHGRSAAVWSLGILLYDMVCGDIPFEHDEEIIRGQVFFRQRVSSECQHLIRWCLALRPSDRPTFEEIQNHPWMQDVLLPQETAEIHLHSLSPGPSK
Put plainly: Kinase selectivity, Z'-LYTE. The format is biochemical. The essentials: as §3

Series [19] deals with T1, Pak1. Put plainly: Kinase selectivity, Z'-LYTE. The format is biochemical. The essentials: as §3
The target of series [20] is T12, RET (Homo sapiens, UniProt P07949).
T12 construct: purchased Invitrogen (Life Technologies) SelectScreen Z'-LYTE
The series is described as follows: Kinase selectivity, Z'-LYTE. The format is biochemical. The essentials: as §3

Series [21] deals with KT21-MG1-Luc5D intracranial xenografts. Put plainly: Orthotopic meningioma model, bioluminescence imaging. The following applies: for loss of body weight compared with control littermates: SCID mice bearing KT21.
Source text: Eight-week-old SCID mice were anesthetized with ketamine and their heads were stabilized in a small animal stereotaxic instrument. A midline sagittal incision was made on the cranial skin. A burr hole was drilled in the skull with coordinated 1.5 mm anterior and 1.5 mm lateral to the right from the bregma and a 5-μl Hamilton syringe loaded with cells was slowly inserted through the burr hole and ~0.5 mm downward to the skull base. The incision was closed using surgical absorbable gut suture.
Mice transplanted with meningioma cells were imaged using Xenogen IVIS Spectrum (Caliper, MA). Mice were injected intraperitoneally with Rediject D-Luciferin Ultra at 150 mg/kg under anesthetized with isofluorane. Luciferase activity was measured and all bioluminescence imaging was conducted when perk signal was reached. Once tumors were established (~3 weeks post-transplantation), mice were divided into groups for shRNA studies or drug treatments.
For drugs treatment, mice were dosed with Pak inhibitors daily for 14–21 days and tumor growth was monitored every week by BLI. Mean luminescence for each treatment groups (n = 5) was calculated as described previously.
Series [22] addresses T13, RSK3 (Homo sapiens, UniProt Q15349).
T13 construct: purchased Invitrogen (Life Technologies) SelectScreen Z'-LYTE
Put plainly: Kinase selectivity, Z'-LYTE. The format is biochemical. In short, it runs like this: as §3

In series [23] the target is T14, RSK4 (Homo sapiens, UniProt Q9UK32).
T14 construct: purchased Invitrogen (Life Technologies) SelectScreen Z'-LYTE
The series is described as follows: Kinase selectivity, Z'-LYTE. The format is biochemical. In short, it runs like this:
as §3

The subject of series [24] is KT21 cells. The series is described as follows: Immunoblot of signaling pathways. It counts as cell-based. The procedure: Protein concentration was determined, and equal amount of total proteins were separated by SDS-PAGE. Antibodies used included those for Pak1 (2602), Pak2 (2608), Pak3 (2609), Pak4 (3242), phospho-Pak4-6 (3241), Mek1 (9122), Erk (9102), phospho-Erk1/2 (pThr202/pTyr204; 9101), Akt (9272), phospho-Akt (pThr308; 9275), S6 (2217), phospho-S6 (pSer235/pSer236; 4857), phospho-β-Catenin (pSer675; 4176), and cyclin D1 (2978) from Cell Signaling Technology; β-Catenin (610154) from BD Transduction Laboratories; and phospho-Pak (Ser141; 44940G) and phospho-Mek (Ser298; 44460G) from Invitrogen. GAPDH and β-actin were used as loading control.

Setting [25] is: inhibitors at IC50 concentration.

The values below come from publication PMC4385830, “Group I Paks as therapeutic targets in NF2-deficient meningioma” (Oncotarget, 2015).

A value given as a limit tells only on which side of the number the result lay.

T1 sequence (Q13153 whole entry): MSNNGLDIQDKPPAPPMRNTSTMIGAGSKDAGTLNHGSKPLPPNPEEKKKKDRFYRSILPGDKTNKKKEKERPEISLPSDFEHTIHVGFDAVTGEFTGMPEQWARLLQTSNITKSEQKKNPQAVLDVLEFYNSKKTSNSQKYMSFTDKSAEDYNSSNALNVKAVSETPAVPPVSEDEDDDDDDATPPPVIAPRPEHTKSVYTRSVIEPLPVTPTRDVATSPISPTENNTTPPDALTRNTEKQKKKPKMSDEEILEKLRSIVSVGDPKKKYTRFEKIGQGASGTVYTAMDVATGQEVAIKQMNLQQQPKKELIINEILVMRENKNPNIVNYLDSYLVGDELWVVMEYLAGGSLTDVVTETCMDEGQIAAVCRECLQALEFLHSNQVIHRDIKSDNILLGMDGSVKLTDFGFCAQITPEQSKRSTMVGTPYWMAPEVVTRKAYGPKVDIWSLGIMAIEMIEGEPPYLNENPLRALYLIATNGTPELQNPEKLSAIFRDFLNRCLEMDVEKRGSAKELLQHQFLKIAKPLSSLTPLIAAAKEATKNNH
T10 sequence (P04629 33-796): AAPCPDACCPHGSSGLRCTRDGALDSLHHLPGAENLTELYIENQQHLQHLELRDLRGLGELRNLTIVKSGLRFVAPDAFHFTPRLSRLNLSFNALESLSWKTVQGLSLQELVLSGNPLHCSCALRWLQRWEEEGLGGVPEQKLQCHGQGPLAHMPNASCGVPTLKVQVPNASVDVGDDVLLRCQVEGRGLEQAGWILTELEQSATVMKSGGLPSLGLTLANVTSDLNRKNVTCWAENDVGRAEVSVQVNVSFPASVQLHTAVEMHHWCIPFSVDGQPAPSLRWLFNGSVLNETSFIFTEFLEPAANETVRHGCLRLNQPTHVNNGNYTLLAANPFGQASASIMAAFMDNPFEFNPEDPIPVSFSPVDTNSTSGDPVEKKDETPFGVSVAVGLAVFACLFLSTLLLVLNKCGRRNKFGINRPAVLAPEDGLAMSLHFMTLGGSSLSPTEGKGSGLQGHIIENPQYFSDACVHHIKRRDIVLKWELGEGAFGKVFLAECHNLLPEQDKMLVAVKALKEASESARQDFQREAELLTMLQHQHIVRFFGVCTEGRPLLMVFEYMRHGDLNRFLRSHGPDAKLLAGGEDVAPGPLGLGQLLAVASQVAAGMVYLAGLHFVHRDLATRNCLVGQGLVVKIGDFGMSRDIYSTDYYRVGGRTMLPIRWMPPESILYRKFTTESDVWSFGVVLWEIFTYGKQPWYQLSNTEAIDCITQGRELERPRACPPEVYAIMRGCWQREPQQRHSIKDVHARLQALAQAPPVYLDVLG

As for `CCn1c(=O)c(-c2ccc(-c3noc(C)n3)cc2Cl)cc2cnc(Nc3ccc(C4CCN(C)CC4)cc3)nc21` [Frax716], the IC50 was 2 nM in series [1]; 288 nM in [2]; 218 nM in [3]; 718 nM in series [4] (72 hrs); 1100 nM in series [5]; 494 nM in series [6] (72 hrs). Further, in [7], the “basal level (expression) of β-catenin” value is “did not impact”. In addition, in series [7], the “phosphorylation of β-catenin” value is “diminished”. The “phosphorylation of Pak and Mek1 (at Ser298)” value (from here on “phosphorylation … (at Ser298)”) in series [8] (setting [25]) is given as “dramatically inhibited”. The “% inhibition of activity” value was 82% in series [9]; 9% in series [10]; 13% in series [11]; 29% in series [12]; 0% in [13]; 3% in [14]. Further, the “% inhibition of activity” value is reported as 13% in [15]; 1% in series [16]; 92% in [17]; −4% in series [18]; 95% in [19]; 91% in series [20]. In series [21] (oral gavage 20 mg/kg/day), the “loss of body weight compared with control littermates” value is on record as over 10%. Also, the reduction on bioluminescence in [21] (SCID mice, KT21, oral gavage 20 mg/kg/day, 2 weeks, P = 0.028) is listed as 60%.
Turning to `CCn1c(=O)c(-c2ccc(-c3cncc(C)n3)cc2Cl)cc2cnc(NCCC3CCN(C)CC3)nc21` [Frax1036], the half-maximal inhibitory concentration (IC50) in series [2] was determined as 1240 nM; in series [3], 1890 nM; in series [4] (72 hrs), 4240 nM; in series [5], 1990 nM; in [6] (72 hrs), 3300 nM. Further, in [7], the “basal level (expression) of β-catenin” value is “induction”. In addition, the “phosphorylation … (at Ser298)” value in [8] (setting [25]) is recorded as “nearly abolished”. In addition, the “% inhibition of activity” value in [13] is −14%; in [16], 1%; in series [18] it was 0%; in series [20], 8%; in series [22], 26%; in [23], 9%. The “loss of body weight compared with control littermates” value in series [21] (Frax597 90 mg/kg/day, Frax1036 30 mg/kg/day, oral gavage) is “not seen”. Besides, the “reduction in BMI signals” value in [21] (SCID mice, KT21, oral gavage 30 mg/kg/day, 2 weeks, P = 0.042) was 37%.
With `Cc1nc(Nc2[nH]nc3c2CN(C(=O)N[C@H](CN(C)C)c2ccccc2)C3(C)C)c2sccc2n1` [PF3758309, reference compound], the IC50 in series [2] was found to be 1380 nM; in [3], 29.2 nM; in [4] (72 h), 3400 nM; in [4] (72 hrs) it was 3420 nM; in [5], 376 nM; in series [6] (72 h), 5300 nM. Further, in series [6] (72 hrs), the IC50 stood at 5320 nM. Besides, the “basal level (expression) of β-catenin” value in series [7] is recorded as “induction”. Further, in [8] (either cell type), the “activity of Akt” value is “did not influence”. The Erk activity entry in series [8] (setting [25]) is listed as “decrease”. Besides, in [8] (setting [25]), the “phosphorylation … (at Ser298)” value is listed as “dramatically inhibited”. Also, in [24], the “total and phospho-protein levels of β-catenin” value is given as “only reduction on phosphorylation status”. The “% inhibition of activity” value in series [9] is given as 77%; in [10], 0%; in series [11] it was 100%; in [12], 100%; in [14] it was 18%; in series [15], 7%. For the same compound, the “% inhibition of activity” value was determined as 2% in series [16], 73% in series [17], 6% in series [18] and 100% in series [19].
